≈ marks a conversion by molar mass, not a printed value.

These results are taken from paper PMC10892423 (Pharmaceutics, 2024).

Data set [1] relates to MBL-producing P. aeruginosa clinical isolates. Briefly: Broth microdilution checkerboard synergy assay (MIC of ATM in combination). The format is cell-based, Pseudomonas aeruginosa. The settings on record: for MIC of ATM, alone or in combination: Table 4; for MIC Value of ATM, alone or in combination with ARMA: Table 2. A general note: Dilution methods test growth across graded concentrations, often in twofold steps.

For data set [2], the system named is MBL-producing P. aeruginosa static biofilms. Briefly: Anti-biofilm activity, crystal violet staining. Type of data set: cell-based, Pseudomonas aeruginosa. The settings on record: for Biofilm biomass (OD600): 27 32 mg/L. The source says:
inhibitor 27 against MBL-producing P. aeruginosa clinical isolates.
1 Biofilm biomass was quantified by crystal violet staining at OD600.2 %-inhibition of biofilm

Data set [3] deals with MBL-producing P. aeruginosa clinical isolates. Kind of data set: MIC by broth microdilution (CLSI). The format is cell-based, Pseudomonas aeruginosa. The settings on record: for MIC: Pseudomonas aeruginosa. How it is done:
The DMSO stock solutions of the test compounds were serially diluted to the desired concentrations in CAMHB. Then, 10 μL of the bacterial suspension (5 × 10^5 colony forming units (CFU)/mL) was combined with 200 μL of DMSO stock solutions of the test compounds in 96-well microtiter plates (1% DMSO, final). After the incubation of the plate at 37 °C for 24 h, bacterial growth was visibly evaluated by monitoring the turbidity of the resulting suspension, and the MICs were determined as the lowest concentrations of the test compounds that inhibited the visible growth of the bacteria.

The test system of data set [4] is efflux pump of PA-038blaNDM. Briefly: Inhibition of efflux pumps: EtBr accumulation/efflux. The format is cell-based, Pseudomonas aeruginosa. The settings on record: 8 mg/L of compound. How it is done:
The accumulation of EtBr inside the NDM-producing (PA-038blaNDM) P. aeruginosa clinical isolates was monitored as previously described. Briefly, the P. aeruginosa strain was grown in 5 mL of LB medium until it reached the mid-log phase, and the bacteria were centrifuged at 3500 rpm for 15 min. The resulting pellet was washed twice with an equal volume of PBS. The concentration of the bacterial suspension was adjusted (OD600 = 0.3) and added to each well of a flat-bottomed 96-well black plate ([…]). After the addition of glucose (4 µL) to the cellular suspension at a final concentration of 0.4% (w/v), 4 µL of the title compound or positive control CCCP was added to the plate. Finally, EtBr (10 µL) was also added to each well at a final concentration of 1 µg/mL, and the plate was incubated at 37 °C for 60 min, during which time fluorescence emission from EtBr was recorded (λex 480 nm/λem 630 nm) with a 2-min interval, using a Cytation 5 imaging multi-mode reader (BioTek Instruments, Inc., Winooski, VT, USA).

The subject of the next data set is ESBLs. Details: method as in PMID 32843653. The settings on record: cited from earlier work.
For another data set, the target named is T1, NDM-1 (Klebsiella pneumoniae, UniProt C7C422).
T1 construct: purchased RayBiotech, Inc. 230-00554
Kind of data set: β-lactamase inhibition, imipenem hydrolysis. Type of data set: biochemical. The settings on record: imipenem substrate; read-out: β-Lactamases, IC50 NDM-1. The source says: (§1) Recombinant AmpC from Escherichia coli was produced according to a previously reported protocol. KPC-2 and NDM-1 […] were purchased from LifeSpan Biosciences, Inc. (Lynnwood, WA, USA) (LS-G26598) and RayBiotech, Inc. (Peachtree Corners, GA, USA) (230-00554), respectively. Genes encoding OXA-48 (residues 23–265) and VIM-2 (residues 27–266) were custom-synthesized (Bioneer Inc., Seoul, Republic of Korea) and expressed as previously described. The β-lactamase inhibitory activity of the title compounds was then determined according to the previously reported methods. Briefly, equal volumes (100 μL) of the title compounds (70–0.1 μM in PBS) and diluted enzyme stock were mixed (final concentration 2% of DMSO in 200 μL) in 96-well plates, which were then incubated at 37 °C for 20 min. The incubated mixture was added to each well containing substrates (nitrocefin for AmpC, KPC-2, OXA-48, and VIM-2; and imipenem for NDM-1) of final concentrations of 70 μM for nitrocefin and 100 μM for imipenem. Substrate hydrolysis was monitored at 486 nm (nitrocefin) or 300 nm (imipenem) for 15 min, using a Cytation 5 imaging multimode reader (BioTek Instruments Inc., Winooski, VT, USA). At the plateau level of hydrolysis, the corresponding rates of hydrolysis were compared to those obtained without inhibitors (100%) to determine the percentage of enzyme inhibition at each concentration of the title compounds. The IC50 values of the compounds were derived from sigmoidal dose–response curves, using GraphPad Prism 5 (GraphPad Software, Boston, MA, USA).

A further data set deals with T2, AmpC (Escherichia coli, UniProt P00811).
T2 construct: made in house
Briefly: β-lactamase inhibition, nitrocefin hydrolysis. The format is biochemical.
Excerpt: as §1

The target in a further data set is T3, OXA-48 (Klebsiella pneumoniae, UniProt Q6XEC0).
T3 construct: Genes encoding OXA-48 (residues 23–265) and VIM-2 (residues 27–266) were custom-synthesized; made in house
Kind of data set: β-lactamase inhibition, nitrocefin hydrolysis. Type of data set: biochemical. The settings on record: nitrocefin substrate; read-out: β-Lactamases, IC50 OXA-48.
Excerpt: as §1

In a further data set the target is T4, VIM-2 (Escherichia coli, UniProt Q5U7L7).
T4 construct: Genes encoding OXA-48 (residues 23–265) and VIM-2 (residues 27–266) were custom-synthesized; made in house
Kind of data set: β-lactamase inhibition, nitrocefin hydrolysis. The format is biochemical. The settings on record: nitrocefin substrate; read-out: β-Lactamases, IC50 VIM-2.
Excerpt: as §1

In a further data set the target is T5, KPC-2 (Klebsiella pneumoniae, UniProt Q9F663).
T5 construct: purchased LifeSpan Biosciences, Inc. LS-G26598
Kind of data set: β-lactamase inhibition, nitrocefin hydrolysis. Type of data set: biochemical. The settings on record: nitrocefin substrate; read-out: β-Lactamases, IC50 KPC-2.
Excerpt: as §1

Data set [5] deals with human liver (HepG2) cell line. Briefly: HepG2 cell viability. The format is cell-based. The settings on record: up to 64 mg/L, 24 h exposure. How it is done:
Concentration of 27 (mg/L)
Figure S1. Cell viability of human hepatoma HepG2 cells presented as percentage of
control after 24 h exposure to different concentrations of 27. The data represent the
average values of three experiments (± SD).

T2 sequence (P00811 20-377): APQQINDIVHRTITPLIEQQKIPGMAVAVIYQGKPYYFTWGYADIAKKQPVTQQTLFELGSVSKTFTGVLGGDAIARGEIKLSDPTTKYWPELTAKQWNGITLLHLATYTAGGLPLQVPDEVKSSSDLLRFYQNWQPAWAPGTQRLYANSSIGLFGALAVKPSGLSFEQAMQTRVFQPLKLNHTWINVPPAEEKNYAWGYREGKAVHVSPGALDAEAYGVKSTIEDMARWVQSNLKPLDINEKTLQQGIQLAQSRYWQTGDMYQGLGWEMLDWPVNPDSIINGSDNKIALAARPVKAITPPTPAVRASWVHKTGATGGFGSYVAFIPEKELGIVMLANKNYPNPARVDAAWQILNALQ
T1 sequence (C7C422 29-270, looked up, species assumed): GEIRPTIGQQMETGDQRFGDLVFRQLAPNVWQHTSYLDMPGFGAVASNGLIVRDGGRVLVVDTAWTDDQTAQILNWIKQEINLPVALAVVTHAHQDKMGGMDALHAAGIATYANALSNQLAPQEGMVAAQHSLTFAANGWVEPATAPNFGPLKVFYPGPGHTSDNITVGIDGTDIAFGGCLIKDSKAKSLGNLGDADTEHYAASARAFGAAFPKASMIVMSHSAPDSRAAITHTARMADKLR
T3 sequence (Q6XEC0 23-265 limits assumed): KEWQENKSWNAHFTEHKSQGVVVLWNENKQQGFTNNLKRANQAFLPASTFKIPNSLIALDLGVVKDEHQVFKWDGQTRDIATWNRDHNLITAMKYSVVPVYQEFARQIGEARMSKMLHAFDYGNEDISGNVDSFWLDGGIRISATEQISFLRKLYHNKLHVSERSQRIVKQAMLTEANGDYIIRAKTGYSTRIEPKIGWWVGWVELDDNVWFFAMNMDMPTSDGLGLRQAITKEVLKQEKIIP
T5 sequence (Q9F663 25-293, looked up): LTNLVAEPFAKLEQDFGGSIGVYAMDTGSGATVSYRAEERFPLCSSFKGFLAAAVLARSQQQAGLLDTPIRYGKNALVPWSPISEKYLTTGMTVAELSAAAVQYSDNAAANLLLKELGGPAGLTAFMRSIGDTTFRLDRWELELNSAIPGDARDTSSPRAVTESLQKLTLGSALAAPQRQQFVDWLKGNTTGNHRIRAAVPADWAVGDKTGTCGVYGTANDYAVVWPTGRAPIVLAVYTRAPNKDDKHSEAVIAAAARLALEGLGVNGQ

`C[C@H]1[C@H](NC(=O)/C(=N\OC(C)(C)C(=O)O)c2csc(N)n2)C(=O)N1S(=O)(=O)O` [ATM, aztreonam]: the “MIC of ATM, alone or in combination” value in [1] (PA-001, blaNDM) came to 32 µg/mL; in data set [1] (PA-002, blaIMP) it was 64 µg/mL; in data set [1] (PA-007, blaNDM), 16 µg/mL; in data set [1] (PA-008, blaNDM), 16 µg/mL; in data set [1] (PA-011, blaNDM), 16 µg/mL; in data set [1] (PA-012, blaNDM), 16 µg/mL. The “MIC of ATM, alone or in combination” value in data set [1] (PA-016, blaIMP) came out at 64 µg/mL; in data set [1] (PA-017, blaNDM) it was 16 µg/mL; in data set [1] (PA-019, blaNDM), 16 µg/mL; in data set [1] (PA-020, blaNDM) it was 16 µg/mL; in data set [1] (PA-023, blaNDM) it was 16 µg/mL; in [1] (PA-025, blaNDM) it was 16 µg/mL. The “MIC of ATM, alone or in combination” value in data set [1] (PA-027, blaIMP) was 32 µg/mL; in data set [1] (PA-028, blaNDM), 8 µg/mL; in data set [1] (PA-029, blaIMP), 64 µg/mL; in data set [1] (PA-030, blaIMP), 64 µg/mL; in data set [1] (PA-034, blaNDM), 16 µg/mL; in [1] (PA-036, blaNDM), 16 µg/mL. Further, the “MIC of ATM, alone or in combination” value in data set [1] (PA-038, blaNDM) turned out to be 16 µg/mL; in [1] (PA-039, blaNDM), 16 µg/mL; in [1] (PA-044, blaNDM), 16 µg/mL. Further, the “MIC Value of ATM, alone or in combination with ARMA” value in [1] (PA-002, blaIMP) worked out at 64 µg/mL; in [1] (PA-003, blaVIM), 32 µg/mL; in data set [1] (PA-025, blaNDM), 16 µg/mL; in [1] (PA-038, blaNDM) it was 16 µg/mL. Moreover, the “inhibition of biofilm formation” value in data set [2] (1/2 × MIC ATM alone) is recorded as “no significant inhibition of biofilm formation”. In addition, the “Biofilm biomass (OD600)” value in [2] (PA-007, blaNDM, ATM 1/2 MIC (8 mg/L)) is recorded as 1.03; in data set [2] (PA-011, blaNDM, ATM 1/2 MIC (8 mg/L)) it was 0.51; in data set [2] (PA-012, blaNDM, ATM 1/2 MIC (8 mg/L)), 0.23; in data set [2] (PA-030, blaIMP, ATM 1/2 MIC (32 mg/L)), 1.84. Moreover, the “ATM MICs relative to the CLSI antibiotic susceptibility breakpoint (1 mg/L)” value in [3] (21 MBL-producing P. aeruginosa strains) is 8–64 times higher. In addition, the minimal inhibitory concentration (MIC) in data set [3] (PA-001, blaNDM) came to 32 µg/mL (≈ 73.5 µM); in data set [3] (PA-002, blaIMP), 64 µg/mL (≈ 147 µM); in data set [3] (PA-007, blaNDM) it was 16 µg/mL (≈ 36.7 µM); in data set [3] (PA-008, blaNDM), 16 µg/mL (≈ 36.7 µM); in data set [3] (PA-011, blaNDM), 16 µg/mL (≈ 36.7 µM); in data set [3] (PA-012, blaNDM) it was 16 µg/mL (≈ 36.7 µM). The minimal inhibitory concentration (MIC) was 64 µg/mL (≈ 147 µM) in data set [3] (PA-016, blaIMP); 16 µg/mL (≈ 36.7 µM) in data set [3] (PA-017, blaNDM); 16 µg/mL (≈ 36.7 µM) in data set [3] (PA-019, blaNDM); 16 µg/mL (≈ 36.7 µM) in data set [3] (PA-020, blaNDM); 16 µg/mL (≈ 36.7 µM) in [3] (PA-023, blaNDM); 16 µg/mL (≈ 36.7 µM) in data set [3] (PA-025, blaNDM). In addition, the MIC in data set [3] (PA-027, blaIMP) was found to be 32 µg/mL (≈ 73.5 µM); in data set [3] (PA-028, blaNDM), 8 µg/mL (≈ 18.4 µM); in data set [3] (PA-029, blaIMP) it was 64 µg/mL (≈ 147 µM); in data set [3] (PA-030, blaIMP) it was 64 µg/mL (≈ 147 µM); in data set [3] (PA-034, blaNDM) it was 16 µg/mL (≈ 36.7 µM); in data set [3] (PA-036, blaNDM), 16 µg/mL (≈ 36.7 µM). The MIC in data set [3] (PA-038, blaNDM) amounted to 16 µg/mL (≈ 36.7 µM); in [3] (PA-039, blaNDM), 16 µg/mL (≈ 36.7 µM); in [3] (PA-044, blaNDM) it was 16 µg/mL (≈ 36.7 µM).
Turning to `N#CC(C#N)=NNc1cccc(Cl)c1` [CCCP, carbonyl cyanide 3-chlorophenylhydrazone], the “EtBr fluorescence (accumulation)” value in data set [4] was “became stronger”.
For the molecule `O=c1c(O)c(-c2ccc(F)c(F)c2)oc2cc(O)cc(O)c12` [Compound 1, 3′,4′-difluoroquercetin], the “concentration at which ATM-potentiating activity was observed” value in data set [1] (four representative MBL-producing P. aeruginosa strains (Table 2)) lay within 8 to 16 mg/L. For the same molecule, in the data set with ESBLs, the “inhibition of ESBLs” value was “not to inhibit ESBLs”. For the same molecule, the half-maximal inhibitory concentration (IC50) on NDM-1 was over 50 µM; at AmpC, over 50 µM; at OXA-48, over 100 µM; at VIM-2 it was over 100 µM; on KPC-2 it was over 50 µM. The “EtBr fluorescence (accumulation)” value in [4] is listed as “as potent as CCCP”.
On to `CC(C)(C)CCOc1c(-c2ccc(F)c(F)c2)oc2cc(O)cc(O)c2c1=O` [Compound 23], for which the IC50 amounted to 11.4 µM on NDM-1; 18.9 µM against AmpC; 14.8 µM at OXA-48; 11.9 µM on VIM-2; 17.3 µM at KPC-2. Further, the “EtBr fluorescence (accumulation)” value in data set [4] is reported as “significant increase in EtBr accumulation”.
For the molecule `O=c1c(OCCC2CCCC2)c(-c2ccc(F)c(F)c2)oc2cc(O)cc(O)c12` [Compound 26], the IC50 on NDM-1 came to 15.9 µM; at AmpC it was 21 µM; at OXA-48 it was 8 µM; at VIM-2 it was 9 µM; on KPC-2, 11.5 µM. Besides, the “EtBr fluorescence (accumulation)” value in data set [4] is recorded as “significant increase in EtBr accumulation”.
Turning to `O=c1c(OCCC2CCCCC2)c(-c2ccc(F)c(F)c2)oc2cc(O)cc(O)c12` [Compound 27], the “strains with more than a four-fold MIC reduction (synergistic effect) of ATM” value in data set [1] (21 MBL-producing P. aeruginosa clinical strains, combination with ATM) is given as 19 out of 21. Further, the MIC in [1] (Pseudomonas aeruginosa, MBL-producing P. aeruginosa clinical isolates, no activity up to this concentration, read-out: antimicrobial activity (MIC) of the compound alone) was over 512 µg/mL. For the same molecule, the half-maximal inhibitory concentration (IC50) was 10.1 µM on NDM-1; 15.3 µM on AmpC; 6.3 µM on OXA-48; 4.4 µM at VIM-2; 11.3 µM at KPC-2. Besides, the “EtBr fluorescence (accumulation)” value in data set [4] is recorded as “significant increase in EtBr accumulation”. The cytotoxic effects result in data set [5] is “no cytotoxic effects”.

As a reminder, the MIC is the lowest concentration that inhibits growth of the organism. Usually IC50 stands for the concentration at which inhibition is half-maximal.
